# Assay results from PMC6121260, “Sulfated Metabolites of Flavonolignans and 2,3-Dehydroflavonolignans: Preparation and Properties” (International Journal of Molecular Sciences, 2018).
# Where two headings read alike, the source gives them in different places. Marks after values point to notes of the source that are not given here.
# Legend:
# [1] = Folin–Ciocalteu reagent (FCR) reduction; assay type: biochemical; settings: Folin–Ciocalteau reagent reduction, gallic acid equivalents; mean ± standard error
# Method: (§1) N,N-dimethyl-p-phenylenediamine (DMPD) and 2,2′-azino-bis(3-ethylbenzothiazolin-6-sulfonic acid (ABTS) cation radical scavenging and ferric reducing antioxidant power (FRAP) were measured using kits from Bioquochem (Llanera-Asturias, Spain). Antiradical activity by 2,2-diphenyl-1-picrylhydrazyl radical scavenging assay, reducing capacity using Folin–Ciocalteau reagent (FCR), and anti-lipoperoxidant activity using inhibition of lipid peroxidation of rat liver microsomes induced by tert-butyl hydroperoxide were determined as described previously with modifications described in detail in our previous research.
# [2] = ABTS+ cation radical scavenging; assay type: biochemical; settings: vitamin C equivalents, mean ± standard error
# Method: as §1
# [3] = Ferric reducing antioxidant power (FRAP); assay type: biochemical; settings: equivalents of Fe^2+, mean ± standard error
# Method: as §1
# [4] = Log p, octan-1-ol / phosphate buffer partition; assay type: physicochemical; settings: octan-1-ol / 6.6 mM phosphate buffer pH 7.4, 25 °C
# Method: The hydrophobicity of the compounds was determined by measuring their partition coefficient P in a mixture of two immiscible phases—octan-1-ol and 6.6 mM phosphate buffer pH 7.4. Stock solutions (0.5 mM) were prepared in octan-1-ol (parent compounds) and in the buffer (sulfated compounds). The stock solutions (150 µL) were mixed with 150 µL of the immiscible phase in microcentrifuge tubes (1.5 mL); shaken for 2 h (750 rpm, 25 °C); and after incubation, the phases were separated. Water phases were diluted 1:1 with the mobile phase (acetonitrile/deionized water/HCO2H, 5:95:0.1; v/v) and analyzed by HPLC using the gradient G3 (see Section 3.1.3). Octan-1-ol phases were evaporated in the stream of air (70 °C), then dissolved in 10 µL of DMSO, and mixed with 90 µL of mobile phase and analyzed by HPLC. The log p values were calculated from the respective peak heights (h) using the formula log p = log(hoctanol/hbuffer). For comparison, log p values were calculated using the Molinspiration property engine v2016.10 (http://www.molinspiration.com, Molinspiration Cheminformatics, Slovensky Grob, Slovakia) (access on 26th October 2017).
# [5] = Inhibition of lipoperoxidation (Lpx) induced by tert-butyl hydroperoxide; assay type: biochemical; settings: rat liver microsomal membranes, mean ± standard error
# Method: as §1
# DPPH radical scavenging = assay type: biochemical; settings: mean ± standard error
# Method: as §1
# [6] = DMPD+ cation radical scavenging; assay type: biochemical; settings: vitamin C equivalents, mean ± standard error
# Method: as §1
# [7] = target: T1, aryl sulfotransferase from rat liver (AST IV) (Rattus norvegicus, UniProt P17988); test: Substrate specificity of AST IV (whole E. coli cells, p-NPS donor); assay type: in vitro ADME; design: key: +: isolated sulfated product(s) and/or release of p-nitrophenol (p-NP); –: no formation of p-NP and/or isolated sulfated products; settings: whole E. coli cells expressing AST IV, 37 °C, 72 h
# T1 construct: made in house; host or cells: E. coli BL21 (DE3) Gold (whole cells used as catalyst)
# Method: The plasmid bearing astIV gene was kindly provided by Prof. L. Elling, RWTH Aachen, Germany. The enzyme was expressed in E. coli BL21 (DE3) Gold as described, with modifications reported in our previous work. Whole E. coli cells producing the enzyme, freshly prepared according to the literature, were employed in the biotransformation experiments as a catalyst.
# Silybin, silybin A, silybin B, silychristin, and silydianin (separately, each 50 mg, 0.104 mmol) and p-nitrophenyl sulfate (p-NPS, 35 mg, 0.136 mmol; Sigma-Aldrich, St. Louis, MO, USA) were dissolved in 3 mL DMSO, and 2 g (wet based) of whole cells expressing AST IV resuspended in K-phosphate buffer (pH 7.5, 17 mL) were added. The reaction mixture was incubated on a rotary shaker at 37 °C for 24 h. The cells were then removed by centrifugation (30 min, 5000 rpm, 5404 R Eppendorf, Germany), a new portion of fresh cells (2 g in 15 mL, wet based, resuspended in K-phosphate buffer) were added to the supernatant and incubated for 24 h. This step was repeated once more with a total reaction time of 72 h. The reaction was monitored by HPLC and after 72 h, the reaction mixtures, containing the sulfated product(s), were purified by preparative HPLC employing Asahipak GS-310 20F (Shodex, Tokyo, Japan) column with isocratic elution with 100% methanol. The fraction containing the putative sulfated product(s) was evaporated, dissolved in 1 mL of 80% methanol, and loaded onto a Sephadex LH-20 column (15 g dry weight, 12 mm i.d.) packed and eluted with 80% methanol. Only one sulfated product was obtained; silybin B 20-O-sulfate (14.5 mg, 0.03 mmol, yield 25%), whose identity was confirmed by comparison with previously published data.
# [8] = Stability of the isolated sulfate; assay type: physicochemical; settings: after isolation
# Method: It quickly decomposed into a mixture of at least five products and, therefore, it was not studied further.
# Silydianin (150 mg, 0.311 mmol) was sulfated using the same procedure as for silybin. Silydianin-19-O-sulfate was obtained as a yellowish solid (101 mg, 58.3%). Its structure was determined by HRMS (m/z calcd. for C25H21O13 S 561.07083, found 561.07141) and NMR (see Figure S13 and Table S5, Supplementary Material).
# [9] = design: method as in PMID 26260337, PMID 16919302; settings: read-out: DPPH scavenging IC50; cited from earlier work
# T1 sequence (P17988 whole entry): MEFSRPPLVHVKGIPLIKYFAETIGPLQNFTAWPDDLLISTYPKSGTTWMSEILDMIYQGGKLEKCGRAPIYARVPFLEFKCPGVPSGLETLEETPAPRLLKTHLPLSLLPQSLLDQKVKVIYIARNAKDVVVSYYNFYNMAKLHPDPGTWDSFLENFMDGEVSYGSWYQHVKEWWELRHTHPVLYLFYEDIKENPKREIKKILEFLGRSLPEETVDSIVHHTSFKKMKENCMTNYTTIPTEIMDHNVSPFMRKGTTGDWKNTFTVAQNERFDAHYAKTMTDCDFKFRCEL
logP at 2 h [4],IC50 [5] [µM],IC50 (DPPH radical scavenging) [µM],Stability of the compound [8],Stability of the compound ([8]; listed as silydianin-19-O-sulfate),Structure (SMILES),FCR [GAE] [1],ABTS^+ [CE] [2],FRAP [Fe^2+] [3],DMPD^+ [CE] [6],Formation of p-NP [7],DMPD^+ [CE] ([6]; listed as silychristin),IC50 [9] [µM]
2.17,68.6 ± 2.2,546 ± 17,,,"COc1cc([C@@H]2Oc3cc([C@H]4Oc5cc(O)cc(O)c5C(=O)[C@@H]4O)ccc3O[C@H]2CO)ccc1O [Silybin B, silybin B, reference compound]",0.36 ± 0.03 ^k GAE,0.97 ± 0.05 ^i CE,0.04 ± 0.00 ^q Fe^2+,1.09 ± 0.01 ^n CE,+ ^a,,
1.47,17.9 ± 0.7,37.1 ± 3.1,,,"COc1cc(C2Oc3c(O)cc([C@H]4Oc5cc(O)cc(O)c5C(=O)[C@@H]4O)cc3C2CO)ccc1O (some centres unmarked) [Silychristin, reference compound]",1.13 ± 0.23 ^m GAE,1.50 ± 0.09 CE,0.64 ± 0.06 Fe^2+,1.50 ± 0.02^o CE,+ ^a,1.5,
,,,unstable,extremely unstable,COc1cc(C2C3C=C(C4Oc5cc(O)cc(O)c5C(=O)C4O)C4C2COC4(O)C3=O)ccc1OS(=O)(=O)O (centres unmarked) [Silydianin-19-O-sulfate],,,,,,,
,,,,,O=C1c2c(O)cc(O)cc2OC(c2ccc(O)c(O)c2)C1O (centres unmarked) [taxifolin],,,,,,,6 to 10
